The results in this text go back to ChEMBL document CHEMBL4364319 (Eur J Med Chem, 2019).

Series [1] is described as follows: AUC (0 to infinity) in Sprague-Dawley rat at 10 mg/kg, po via gavage after 48 hrs by LC-MS/MS analysis. In kind it is ADME, organism-based. Details: dose 10 mg/kg, route oral, time infinity. The note with it: in vivo.
The nature of series [2]: Tmax in Sprague-Dawley rat assessed as (R)-2-((8-(3-aminopiperidin-1-yl)-7-(but-2-yn-1-yl)-3-methyl-2,6-dioxo-2,3,6,7-tetrahydro-1H-purin-1-yl)methyl)-5-chlorobenzoic acid level at 10 mg/kg, po via gavage after 48 hrs by LC-MS/MS analysis. The following applies: in vivo. It counts as ADME, organism-based.
Series [3] is described as follows: Tmax in Sprague-Dawley rat at 10 mg/kg, po via gavage after 48 hrs by LC-MS/MS analysis. In kind it is ADME, organism-based. The following applies: in vivo.
Series [4] relates to Mus musculus. Briefly: Anti-diabetic activity in po dosed 8 hrs-fasted C57BL/6 db/db mouse assessed as increase in glucose tolerance pretreated for 60 mins followed by glucose challenge and measured after 120 mins post glucose challenge by OGTT. In kind it is functional, organism-based.
Series [5] is described as follows: Clearance in Sprague-Dawley rat at 10 mg/kg, po via gavage after 48 hrs by LC-MS/MS analysis. It counts as ADME, organism-based. The note with it: in vivo.
In the next series the target is Dipeptidyl peptidase 8 (Homo sapiens, UniProt Q6V1X1). In words: Inhibition of DPP8 (unknown origin) using Gly-Pro-AMC as substrate preincubated for 15 mins followed by substrate addition measured at 60 secs interval for 20 mins by fluorometic method.
The nature of series [6]: Oral bioavailability in Sprague-Dawley rat assessed as (R)-2-((8-(3-aminopiperidin-1-yl)-7-(but-2-yn-1-yl)-3-methyl-2,6-dioxo-2,3,6,7-tetrahydro-1H-purin-1-yl)methyl)-5-chlorobenzoic acid level at 10 mg/kg via gavage after 48 hrs by LC-MS/MS analysis. The following applies: in vivo. In kind it is ADME, organism-based.
The subject of series [7] is Mus musculus. In words: Anti-diabetic activity in 8 hrs-fasted C57BL/6 db/db mouse assessed as reduction in blood glucose AUC (0 to 120 mins) at 1 mg/kg, po pretreated for 60 mins followed by glucose challenge and measured after 120 mins post glucose challenge by OGTT relative to control. In kind it is functional. Details: scale not given: the % may be the effect or the level left.

Series [8] is described as follows: Half life in Sprague-Dawley rat assessed as (R)-2-((8-(3-aminopiperidin-1-yl)-7-(but-2-yn-1-yl)-3-methyl-2,6-dioxo-2,3,6,7-tetrahydro-1H-purin-1-yl)methyl)-5-chlorobenzoic acid level at 10 mg/kg, po via gavage after 48 hrs by LC-MS/MS analysis. In kind it is ADME, organism-based. The note with it: in vivo.
Series [9] is filed under the species Rattus norvegicus. Briefly: animal or person. The note with it: Sprague-Dawley, po, 24 h, read-out: INH.
Series [10] deals with Mus musculus. Briefly: Anti-diabetic activity in db/db mouse assessed as reduction in fasting blood glucose leave at 10 mg/kg, po dosed once daily for 3 weeks measured for every 7 days. In kind it is functional, organism-based.
For series [11], the system named is Mus musculus. In words: Anti-diabetic activity in 8 hrs-fasted C57BL/6 db/db mouse assessed as reduction in blood glucose AUC (0 to 120 mins) at 3 mg/kg, po pretreated for 60 mins followed by glucose challenge and measured after 120 mins post glucose challenge by OGTT relative to control. It counts as functional. Details: scale not given: the % may be the effect or the level left.

Series [12] can be described thus: Cmax in Sprague-Dawley rat assessed as (R)-2-((8-(3-aminopiperidin-1-yl)-7-(but-2-yn-1-yl)-3-methyl-2,6-dioxo-2,3,6,7-tetrahydro-1H-purin-1-yl)methyl)-5-chlorobenzoic acid level at 10 mg/kg, po via gavage after 48 hrs by LC-MS/MS analysis. The following applies: in vivo. It counts as ADME, organism-based. Details: dose 10 mg/kg, route oral.
Series [13] is described as follows: Stability in PBS at pH 7.4 assessed as compound remaining at 1 uM after 120 mins by LC-MS/MS analysis relative to control. It counts as physicochemical. The following applies: read-out: Stability.
A further series deals with Dipeptidyl peptidase 9 (Homo sapiens, UniProt Q86TI2). Briefly: Inhibition of DPP9 (unknown origin) using Gly-Pro-AMC as substrate preincubated for 15 mins followed by substrate addition measured at 60 secs interval for 20 mins by fluorometic method.
The nature of series [14]: Cytotoxicity against human LO2 cells assessed as cell viability at 20 uM after 48 hrs by MTT assay. The note with it: read-out: Activity. In kind it is cell-based, L02. A general note: Tetrazolium assays rely on reduction of a dye to a coloured formazan, in cell work by metabolically active cells.
Series [15] is filed under the species Rattus norvegicus. Briefly: animal or person. The following applies: Sprague-Dawley, po, 12 h, read-out: INH.
Series [16] deals with Mus musculus. Briefly: Anti-diabetic activity in db/db mouse assessed as reduction in blood glucose AUC (0 to 120 mins) at 3 mg/kg, po dosed once daily for 3 weeks following 12 hrs fasting and glucose challenge measured up to 120 mins relative to control. Details: scale not given: the % may be the effect or the level left. In kind it is functional.
In series [17] the test system is Mus musculus. In words: Anti-diabetic activity in db/db mouse assessed as increase in glucose tolerance at 10 mg/kg, po dosed once daily for 3 weeks following 12 hrs fasting and glucose challenge measured up to 120 mins. It counts as functional, organism-based.
The nature of series [18]: Clearance in Sprague-Dawley rat assessed as (R)-2-((8-(3-aminopiperidin-1-yl)-7-(but-2-yn-1-yl)-3-methyl-2,6-dioxo-2,3,6,7-tetrahydro-1H-purin-1-yl)methyl)-5-chlorobenzoic acid level at 10 mg/kg, po via gavage after 48 hrs by LC-MS/MS analysis. In kind it is ADME, organism-based. The note with it: in vivo.
Series [19] concerns Mus musculus. Briefly: Anti-diabetic activity in db/db mouse assessed as reduction in blood glucose AUC (0 to 120 mins) at 10 mg/kg, po dosed once daily for 3 weeks following 12 hrs fasting and glucose challenge measured up to 120 mins relative to control. Details: scale not given: the % may be the effect or the level left. In kind it is functional.
Series [20] has as its system Mus musculus. Briefly: Anti-diabetic activity in db/db mouse assessed as reduction in fasting blood glucose leave at 3 mg/kg, po dosed once daily for 3 weeks measured for every 7 days. It counts as functional, organism-based.
The nature of series [21]: Half life in Sprague-Dawley rat at 10 mg/kg, po via gavage after 48 hrs by LC-MS/MS analysis. In kind it is ADME, organism-based. The following applies: in vivo.
Series [22] in a line: AUC (0 to infinity) in Sprague-Dawley rat assessed as (R)-2-((8-(3-aminopiperidin-1-yl)-7-(but-2-yn-1-yl)-3-methyl-2,6-dioxo-2,3,6,7-tetrahydro-1H-purin-1-yl)methyl)-5-chlorobenzoic acid level at 10 mg/kg, po via gavage after 48 hrs by LC-MS/MS analysis. It counts as ADME, organism-based. Details: dose 10 mg/kg, route oral, time infinity. The note with it: in vivo.
Series [23] relates to Mus musculus. Briefly: Anti-diabetic activity in 12 hrs-fasted ICR mouse assessed as reduction in blood glucose AUC (0 to 120 mins)at 10 mg/kg, po pretreated for 60 mins followed by glucose challenge and measured after 120 mins post glucose challenge by OGTT relative to control. It counts as functional. Details: scale not given: the % may be the effect or the level left.
In series [24] the test system is Mus musculus. In words: Anti-diabetic activity in 8 hrs-fasted C57BL/6 db/db mouse assessed as reduction in blood glucose AUC (0 to 120 mins) at 10 mg/kg, po pretreated for 60 mins followed by glucose challenge and measured after 120 mins post glucose challenge by OGTT relative to control. In kind it is functional. Details: scale not given: the % may be the effect or the level left.

Series [25] is described as follows: Stability in Sprague-Dawley rat plasma assessed as compound remaining at 1 uM measured up to 120 mins by LC-MS/MS analysis relative to control. The following applies: read-out: Stability. It counts as ADME, cell-free.
Series [26] can be described thus: Cmax in Sprague-Dawley rat at 10 mg/kg, po via gavage after 48 hrs by LC-MS/MS analysis. It counts as ADME, organism-based. The note with it: in vivo. Details: dose 10 mg/kg, route oral.
Series [27] is described as follows: Toxicity in db/db mouse assessed as increase in body weight at 3 to 10 mg/kg, po dosed once daily for 3 weeks and measured every day. The following applies: in vivo, 504 h. It counts as organism-based.
Series [28] can be described thus: Clearance in Sprague-Dawley rat at 5 mg/kg, iv measured after 48 hrs by LC-MS/MS analysis. The note with it: in vivo. In kind it is ADME, organism-based.
The species entered for series [29] is Rattus norvegicus. Briefly: animal or person. The note with it: Sprague-Dawley, po, 2 h, read-out: INH.
Description: Anti-diabetic activity in Sprague-Dawley rat assessed as redcution in DPP4 inhibition in plasma at 10 mg/kg, po via gavage administered as single dose measured at 2 hrs post dose by fluorometric assay relative to control
A short description of series [30]: AUC (0 to infinity) in Sprague-Dawley rat at 5 mg/kg, iv measured after 48 hrs by LC-MS/MS analysis. It counts as ADME, organism-based. The following applies: in vivo. Details: dose 5 mg/kg, route intravenous, time infinity.
The nature of series [31]: Cmax in Sprague-Dawley rat at 5 mg/kg, iv measured after 48 hrs by LC-MS/MS analysis. In kind it is ADME, organism-based. Details: dose 5 mg/kg, route intravenous. The following applies: in vivo.
Series [32] is described as follows: Oral bioavailability in Sprague-Dawley rat at 10 mg/kg via gavage after 48 hrs by LC-MS/MS analysis. It counts as ADME, organism-based. The following applies: in vivo.
A short description of series [33]: Half life in Sprague-Dawley rat at 5 mg/kg, iv measured after 48 hrs by LC-MS/MS analysis. The note with it: in vivo. In kind it is ADME, organism-based.
The nature of series [34]: Cytotoxicity against human LO2 cells assessed as cell viability at 50 uM after 48 hrs by MTT assay. It counts as cell-based, L02. The note with it: read-out: Activity.

Active and inactive are the calls of the source.

A word on the AUC: it is concentration integrated over time. A word on the Tmax: it is the time at which the peak concentration occurs. The term IC50 denotes the concentration needed to halve the response being measured. For orientation: Cmax means the highest concentration seen after dosing. A word on the half-life: it is the time needed for the level to fall by half in the phase considered. As usually defined, the clearance is the rate of elimination divided by the concentration. For orientation: AUC(0-inf) means the area under the concentration-time curve extrapolated to infinity. The term bioavailability denotes dose-corrected exposure relative to a reference, in per cent.

Chain of Dipeptidyl peptidase 8 (Q6V1X1 whole entry): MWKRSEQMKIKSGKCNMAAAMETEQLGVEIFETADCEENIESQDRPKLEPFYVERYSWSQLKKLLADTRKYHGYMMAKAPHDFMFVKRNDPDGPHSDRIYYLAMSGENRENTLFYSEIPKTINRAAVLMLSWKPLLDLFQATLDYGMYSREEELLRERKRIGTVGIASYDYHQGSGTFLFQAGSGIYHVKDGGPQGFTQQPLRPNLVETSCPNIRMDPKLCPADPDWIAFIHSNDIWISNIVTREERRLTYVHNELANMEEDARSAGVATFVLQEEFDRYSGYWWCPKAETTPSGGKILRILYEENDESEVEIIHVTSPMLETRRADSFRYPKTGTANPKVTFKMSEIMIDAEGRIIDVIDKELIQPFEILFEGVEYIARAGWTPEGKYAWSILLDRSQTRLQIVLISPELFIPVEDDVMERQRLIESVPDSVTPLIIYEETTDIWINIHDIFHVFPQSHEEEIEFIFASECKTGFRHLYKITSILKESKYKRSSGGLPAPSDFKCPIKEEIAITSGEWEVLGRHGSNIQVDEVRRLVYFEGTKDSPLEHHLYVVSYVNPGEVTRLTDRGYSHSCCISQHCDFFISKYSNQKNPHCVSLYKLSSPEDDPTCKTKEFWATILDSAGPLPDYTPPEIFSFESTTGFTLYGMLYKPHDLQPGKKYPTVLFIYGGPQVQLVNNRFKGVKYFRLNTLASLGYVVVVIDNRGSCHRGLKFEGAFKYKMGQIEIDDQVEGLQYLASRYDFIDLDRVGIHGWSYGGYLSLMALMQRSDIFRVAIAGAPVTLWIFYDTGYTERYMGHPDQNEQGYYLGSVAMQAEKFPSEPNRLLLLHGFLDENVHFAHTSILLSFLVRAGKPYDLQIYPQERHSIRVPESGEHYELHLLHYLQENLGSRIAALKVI
Chain of Dipeptidyl peptidase 9 (Q86TI2 whole entry): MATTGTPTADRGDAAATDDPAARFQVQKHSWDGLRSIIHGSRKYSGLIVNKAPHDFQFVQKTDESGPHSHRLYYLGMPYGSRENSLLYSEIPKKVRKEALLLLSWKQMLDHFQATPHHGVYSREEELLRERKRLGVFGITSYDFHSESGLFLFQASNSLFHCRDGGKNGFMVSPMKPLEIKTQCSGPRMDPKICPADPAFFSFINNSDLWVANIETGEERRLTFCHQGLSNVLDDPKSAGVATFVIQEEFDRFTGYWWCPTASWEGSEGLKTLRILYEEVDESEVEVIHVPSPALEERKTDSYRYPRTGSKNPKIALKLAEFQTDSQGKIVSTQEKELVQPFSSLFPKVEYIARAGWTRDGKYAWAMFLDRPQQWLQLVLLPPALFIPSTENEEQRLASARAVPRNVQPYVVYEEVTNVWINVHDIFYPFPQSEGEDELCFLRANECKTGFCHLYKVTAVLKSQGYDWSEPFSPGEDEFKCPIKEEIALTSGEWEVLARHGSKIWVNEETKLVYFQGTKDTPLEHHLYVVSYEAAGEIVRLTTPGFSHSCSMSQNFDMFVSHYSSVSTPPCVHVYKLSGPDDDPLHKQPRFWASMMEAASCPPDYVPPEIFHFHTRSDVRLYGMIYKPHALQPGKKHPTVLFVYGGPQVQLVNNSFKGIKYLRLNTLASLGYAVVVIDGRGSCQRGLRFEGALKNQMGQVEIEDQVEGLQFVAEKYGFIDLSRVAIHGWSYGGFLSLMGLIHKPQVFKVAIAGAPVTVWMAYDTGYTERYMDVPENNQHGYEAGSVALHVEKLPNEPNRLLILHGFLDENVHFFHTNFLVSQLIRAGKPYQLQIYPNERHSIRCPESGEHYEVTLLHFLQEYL

In the case of `CC#CCn1c(N2CCC[C@@H](N)C2)nc2c1c(=O)n(Cc1ccc(Cl)cc1C(=O)OC)c(=O)n2C`, the results for the AUC in series [1] and in [22] were 6107.3 ng·h/mL and 3746.05 ng·h/mL, respectively. In addition, the Tmax in series [2] and in series [3] was 1 h in each case. Moreover, the Activity result with Mus musculus [4] was “Dose-dependent effect”; in the series on Mus musculus [7], 26.4%; in the series with Mus musculus [11], 28.8%; with Mus musculus [16], 6%; with Mus musculus [19], 13.2%; with Mus musculus [23], 17.43%. In addition, the Activity with Mus musculus [24] is reported as 54.7%; in series [27], “Non-Toxic”. The figures for the CL in series [5] and in series [18] were 2.67 mL/min/kg and 4.5 mL/min/kg, respectively. Also, the IC50 at Dipeptidyl peptidase 8 and on Dipeptidyl peptidase 9 was greater than 100 µM throughout. In series [6], the F is on record as 19.46%. Also, the t1/2 in series [8] stood at 11.81 h. Further, the inhibition in vivo at 10 mg/kg in the series listed under Rattus norvegicus [9] was determined as 60%; in the series listed under Rattus norvegicus [15], 85%. Moreover, the outcome in the series with Mus musculus [10], in the series with Mus musculus [17] and in the series with Mus musculus [20] was Active. In addition, the Cmax in series [12] stood at 693.32 ng/mL; in [26], 1180 ng/mL. Moreover, the remaining at 2 h, 1 µM is 101% in [13] and 65.2% in [25]. For the same compound, in series [14], the viability at 48 h, 20 µM was 90%. The same compound gave a half-life in series [21] of 10.1 h.

`CC#CCn1c(N2CCC[C@@H](N)C2)nc2c1c(=O)n(Cc1ccc(Cl)cc1C(=O)O)c(=O)n2C` returned an AUC in series [1] of 1301.87 ng·h/mL. For the same compound, the Tmax in [3] is 0.17 h. The compound further showed a clearance in series [28] of 8.83 mL/min/kg. The compound also displayed a CL in series [5] of 13.7 mL/min/kg. Further, the concentration for half-maximal inhibition (IC50) on Dipeptidyl peptidase 8 and against Dipeptidyl peptidase 9 was greater than 100 µM in each case. In addition, the inhibition in vivo at 10 mg/kg in the series filed under Rattus norvegicus [29] is greater than 80%. In [30], the AUC(0-inf) is 9620 ng·h/mL. Also, the remaining at 2 h, 1 µM is 101% in [13] and 102% in series [25]. Moreover, the Cmax is 30600 ng/mL in [31] and 2340 ng/mL in series [26]. Further, the bioavailability in series [32] turned out to be 6.76%. Also, the half-life is 5.24 h in [33] and 1.77 h in series [21]. Also, the Activity in the series with Mus musculus [23] is 14.3%. In addition, the viability at 48 h, 50 µM in [34] was greater than 90%.
